Laboratory results as given in ChEMBL document CHEMBL1201862, “PubChem BioAssay data set” (2004).
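Where inhibition never reached the appropriate level, the endpoint shown equals the highest concentration tested. Otherwise, values were interpolated linearly from a five-concentration, 48-hour dose response in 96-well plates. At the GI50, growth is halved.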 Activity calls are given as the source filed them. No stated cut-off is given here; in the data, active = GI50 up to about 1.1 µM and inactive = higher.

Tests used:
Assay in all cases: NCI-60 cell line screen, 48 h
SK-MEL-5 = tested on: SK-MEL-5
HOP-92 = tested on: HOP-92
UO-31 = tested on: UO-31
SK-OV-3 = tested on: SK-OV-3
NCI/ADR-RES = tested on: NCI/ADR-RES
SW-620 = tested on: SW-620
Hs-578T = tested on: Hs-578T
HT-29 = tested on: HT-29
MDA-N = tested on: MDA-N
TK-10 = tested on: TK-10
ACHN = tested on: ACHN
MOLT-4 = tested on: MOLT-4
SR = tested on: SR
CAKI-1 = tested on: CAKI-1
A549 = tested on: A549
HL-60 = tested on: HL-60
IGROV-1 = tested on: IGROV-1
U-251 = tested on: U-251
CCRF-CEM = tested on: CCRF-CEM
COLO 205 = tested on: COLO 205
SNB-19 = tested on: SNB-19
MDA-MB-231 = tested on: MDA-MB-231
SF-268 = tested on: SF-268
KM12 = tested on: KM12
NCI-H460 = tested on: NCI-H460
786-0 = tested on: 786-0
HCT-15 = tested on: HCT-15
MDA-MB-435 = tested on: MDA-MB-435
PC-3 = tested on: PC-3
HCT-116 = tested on: HCT-116
UACC-62 = tested on: UACC-62
HOP-62 = tested on: HOP-62
OVCAR-8 = tested on: OVCAR-8
NCI-H226 = tested on: NCI-H226
SN12C = tested on: SN12C
OVCAR-3 = tested on: OVCAR-3
DU-145 = tested on: DU-145
SF-539 = tested on: SF-539
M14 = tested on: M14
RPMI-8226 = tested on: RPMI-8226
BT-549 = tested on: BT-549
K562 = tested on: K562
SK-MEL-28 = tested on: SK-MEL-28
OVCAR-5 = tested on: OVCAR-5
A498 = tested on: A498
NCI-H23 = tested on: NCI-H23
T47D = tested on: T47D
MCF7 = tested on: MCF7
UACC-257 = tested on: UACC-257
SF-295 = tested on: SF-295
SK-MEL-2 = tested on: SK-MEL-2
EKVX = tested on: EKVX
LOX IMVI = tested on: LOX IMVI
NCI-H522 = tested on: NCI-H522
Malme-3M = tested on: Malme-3M
OVCAR-4 = tested on: OVCAR-4
SNB-75 = tested on: SNB-75
HCC 2998 = tested on: HCC 2998

CC1(C)CC(=O)c2c(nc3ccc4ccccc4c3c2-c2ccc(NC(=O)CCCCCCCCC(=O)Nc3ccc(-c4c5c(nc6ccc7ccccc7c46)CC(C)(C)CC5=O)cc3)cc2)C1
GI50 (SK-MEL-5): > 100 µM (inactive) | GI50 (HOP-92): > 100 µM (inactive) | GI50 (UO-31): > 100 µM (inactive) | GI50 (SK-OV-3): > 100 µM (inactive) | GI50 (NCI/ADR-RES): > 100 µM (inactive) | GI50 (SW-620): > 100 µM (inactive) | GI50 (Hs-578T): > 100 µM (inactive) | GI50 (HT-29): > 100 µM (inactive) | GI50 (MDA-N): > 100 µM (inactive) | GI50 (TK-10): > 100 µM (inactive) | GI50 (ACHN): > 100 µM (inactive) | GI50 (MOLT-4): > 100 µM (inactive) | GI50 (SR): > 100 µM (inactive) | GI50 (CAKI-1): > 100 µM (inactive) | GI50 (A549): > 100 µM (inactive) | GI50 (HL-60): > 100 µM (inactive) | GI50 (IGROV-1): > 100 µM (inactive) | GI50 (U-251): > 100 µM (inactive) | GI50 (CCRF-CEM): > 100 µM (inactive) | GI50 (COLO 205): > 100 µM (inactive) | GI50 (SNB-19): > 100 µM (inactive) | GI50 (MDA-MB-231): > 100 µM (inactive) | GI50 (SF-268): > 100 µM (inactive) | GI50 (KM12): > 100 µM (inactive) | GI50 (NCI-H460): > 100 µM (inactive) | GI50 (786-0): > 100 µM (inactive) | GI50 (HCT-15): > 100 µM | GI50 (MDA-MB-435): > 100 µM (inactive) | GI50 (PC-3): > 100 µM (inactive) | GI50 (HCT-116): > 100 µM (inactive) | GI50 (UACC-62): > 100 µM (inactive) | GI50 (HOP-62): > 100 µM (inactive) | GI50 (OVCAR-8): > 100 µM (inactive) | GI50 (NCI-H226): > 100 µM (inactive) | GI50 (SN12C): > 100 µM (inactive) | GI50 (OVCAR-3): > 100 µM (inactive) | GI50 (DU-145): > 100 µM (inactive) | GI50 (SF-539): > 100 µM (inactive) | GI50 (M14): > 100 µM (inactive) | GI50 (RPMI-8226): > 100 µM (inactive) | GI50 (BT-549): > 100 µM (inactive) | GI50 (K562): > 100 µM (inactive) | GI50 (SK-MEL-28): > 100 µM (inactive) | GI50 (OVCAR-5): > 100 µM (inactive) | GI50 (A498): > 100 µM (inactive) | GI50 (NCI-H23): > 100 µM (inactive) | GI50 (T47D): > 100 µM (inactive) | GI50 (MCF7): > 100 µM (inactive) | GI50 (UACC-257): > 100 µM (inactive) | GI50 (SF-295): > 100 µM (inactive) | GI50 (SK-MEL-2): > 100 µM (inactive) | GI50 (EKVX): > 100 µM (inactive) | GI50 (LOX IMVI): > 100 µM (inactive)

Cc1cccc(N(CCC#N)S(=O)(=O)c2ccccc2)c1
GI50 (NCI-H522): > 100 µM (inactive) | GI50 (SK-MEL-5): 69 µM (inactive) | GI50 (Malme-3M): > 100 µM (inactive) | GI50 (HOP-92): > 100 µM (inactive) | GI50 (UO-31): 97.7 µM (inactive) | GI50 (SK-OV-3): > 100 µM (inactive) | GI50 (NCI/ADR-RES): > 100 µM (inactive) | GI50 (SW-620): > 100 µM (inactive) | GI50 (Hs-578T): > 100 µM (inactive) | GI50 (HT-29): > 100 µM (inactive) | GI50 (MDA-N): > 100 µM (inactive) | GI50 (TK-10): > 100 µM (inactive) | GI50 (ACHN): > 100 µM (inactive) | GI50 (MOLT-4): > 100 µM (inactive) | GI50 (OVCAR-4): > 100 µM (inactive) | GI50 (SR): > 100 µM (inactive) | GI50 (CAKI-1): > 100 µM (inactive) | GI50 (A549): > 100 µM (inactive) | GI50 (HL-60): > 100 µM (inactive) | GI50 (IGROV-1): > 100 µM (inactive) | GI50 (U-251): > 100 µM (inactive) | GI50 (CCRF-CEM): > 100 µM (inactive) | GI50 (COLO 205): > 100 µM (inactive) | GI50 (SNB-19): > 100 µM (inactive) | GI50 (MDA-MB-231): > 100 µM (inactive) | GI50 (SF-268): > 100 µM (inactive) | GI50 (KM12): > 100 µM (inactive) | GI50 (NCI-H460): > 100 µM (inactive) | GI50 (786-0): > 100 µM (inactive) | GI50 (HCT-15): > 10 µM | GI50 (MDA-MB-435): > 100 µM (inactive) | GI50 (PC-3): > 100 µM (inactive) | GI50 (HCT-116): > 100 µM (inactive) | GI50 (UACC-62): > 100 µM (inactive) | GI50 (HOP-62): > 100 µM (inactive) | GI50 (OVCAR-8): > 100 µM (inactive) | GI50 (NCI-H226): > 100 µM (inactive) | GI50 (SN12C): > 100 µM (inactive) | GI50 (OVCAR-3): > 100 µM (inactive) | GI50 (DU-145): > 100 µM (inactive) | GI50 (SF-539): > 100 µM (inactive) | GI50 (M14): > 100 µM (inactive) | GI50 (RPMI-8226): > 100 µM (inactive) | GI50 (BT-549): > 100 µM (inactive) | GI50 (K562): > 100 µM (inactive) | GI50 (SK-MEL-28): > 100 µM (inactive) | GI50 (OVCAR-5): > 100 µM (inactive) | GI50 (A498): > 100 µM (inactive) | GI50 (SNB-75): > 100 µM (inactive) | GI50 (NCI-H23): > 100 µM (inactive) | GI50 (T47D): > 100 µM (inactive) | GI50 (MCF7): > 100 µM (inactive) | GI50 (UACC-257): > 100 µM (inactive) | GI50 (SK-MEL-2): > 100 µM (inactive) | GI50 (EKVX): > 100 µM (inactive) | GI50 (LOX IMVI): > 100 µM (inactive) | GI50 (HCC 2998): > 100 µM (inactive)
